Source: publication PMC6753678, “Fueling Open Innovation for Malaria Transmission-Blocking Drugs: Hundreds of Molecules Targeting Early Parasite Mosquito Stages” (Frontiers in Microbiology, 2019)
Where two headings read alike, the source gives them in different places.

How the values were obtained:
[1] = tested on: HepG2 cells; experiment: HepG2 cytotoxicity assay
Summary of the method: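 Percent inhibition derived from fluorescent viability readout, normalised to DMSO (negative) and 50 μM doxorubicin (positive). Compound incubation lasted 48 h at 37°C, 5% CO2, with 2,500 HepG2 cells/well in MEM plus 10% FBS and 1% NEAA.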

[2] = tested on: P. falciparum late stage (stages IV-V) gametocytes; parameters: method as in Almela et al 2016; conditions: ref Almela et al 2016, read-out: Pf GCT ATP IC50, cited from earlier work
[3] = tested on: P. falciparum female gametocytes; parameters: method as in Miguel-Blanco et al 2017; conditions: ref Miguel-Blanco et al 2017, read-out: Pf FGAA IC50, cited from earlier work
[4] = tested on: HepG2 cells; conditions: cited from earlier work
[5] = tested on: P. falciparum female gametocytes; experiment: P. falciparum female gametogenesis assay (Pf FGAA); conditions: 1: YES; 0: NO
[6] = tested on: P. falciparum late stage (stages IV-V) gametocytes; experiment: P. falciparum late stage gametocyte ATP depletion assay (Pf GC-ATP); conditions: 1: YES; 0: NO
[7] = HepG2 cytotoxicity unified across the three screens
[8] = value reported with the Pf FGAA screen, ref Miguel-Blanco et al 2017
[9] = value reported with the Pf GCT ATP screen, ref Almela et al 2016

Compound	Unified cytotox [1, 7] [µM]	IC50 ([2]; TCAMS screen comparison) [nM]	IC50 ([3]; TCAMS screen comparison) [nM]	HepG2 cytoxicity [4, 8] [µM]	HepG2 cytoxicity [4, 9] [µM]	Is compound selective in assay? Pf FGAA active? [5]	Is compound selective in assay? Pf GC-ATP active? [6]	Unified cytotox ([1]; HepG2 values of the three screens unified) [µM]	IC50 [2] [nM]	IC50 [3] [nM]	HepG2 cytoxicity (Pf GCT ATP screen) ([4]; HepG2, ref Almela et al 2016) [µM]	HepG2 cytoxicity (Pf FGAA screen) ([4]; HepG2, ref Miguel-Blanco et al 2017) [µM]
Cc1cc(OCCN2CCCCC2)ccc1NC(=O)c1cccc2c(=O)n(Cc3ccc(Cl)cc3)cnc12 [TCMDC-136727]	4.45	950	1400	4.17	4.73	0 (0: NO)	0 (0: NO)					
CN1CCN(CCCNCc2cccc(-c3ccc(CNCCc4ccccc4)cc3)c2)CC1 [TCMDC-140643]	13.08	410	1910	7.92	18.24	0 (0: NO)	1 (1: YES)					
CCn1c(Sc2ccc([N+](=O)[O-])c(C#N)c2)nnc1-c1cccc(Cl)c1 [TCMDC-135234]	18.80	3040	1340	18.80	>25	1 (1: YES)	0 (0: NO)					
CS(=O)(=O)O.FC(F)(F)COc1ccc(CNCCCCCCNCc2ccc(OCC(F)(F)F)c3ccccc23)c2ccccc12 [TCMDC-137853]	2.73	55	630	2.46	3	0 (0: NO)	1 (1: YES)					
c1cc(Nc2nc(-c3ccc(-c4csc(Nc5ccncc5)n4)cc3)cs2)ccn1 [TCMDC-139725]	9.78	260	30	2.26	17.3	1 (1: YES)	1 (1: YES)					
COc1cc2nc(N3CCC(CNCc4ccc(-c5ccc(C(F)(F)F)cc5)cc4)CC3)nc(N)c2cc1OC [TCMDC-138757]	1.43	17.7	100	1.43	<1.56	1 (1: YES)	1 (1: YES)					
CCOc1ccc2nc3cc(NC(=O)c4ccco4)ccc3c(N)c2c1 [TCMDC-125004]	17.72	190	4550	25.15	10.3	0 (0: NO)	1 (1: YES)					
COc1cccc(OC)c1CN1CCC(N(C)CCCCCCCCN2CCC(OC(=O)Nc3ccccc3-c3ccccc3)CC2)CC1 [TCMDC-134684]	2.66	1040	2260	1.93	3.4	0 (0: NO)	0 (0: NO)					
COc1cc2ccccc2c(CNCCCCCCNCc2c(OC)c(OC)cc3ccccc23)c1OC.CS(=O)(=O)O [TCMDC-137795]	4.66	1050	670	4.62	4.7	0 (0: NO)	0 (0: NO)					
CC(Cc1ccc(OCCCCOc2ccccc2)cc1)NCCC1CCCN1C (stereo not shown) [TCMDC-140017]	1.12	95	200	1.12	<1.56	0 (0: NO)	1 (1: YES)					
CC(Cc1ccc(C(=O)Nc2ccc(CC(C)NCCc3cccc(Cl)c3)cc2)cc1)NCCc1ccc(C(F)(F)F)cc1 (stereo not shown) [TCMDC-139790]	3.71	310	1010	4.13	3.3	0 (0: NO)	1 (1: YES)					
COc1c(OC)c(OC)c2ccccc2c1CNCCCCCCNCc1c(OC)c(OC)c(OC)c2ccccc12.Cl [TCMDC-137827]	3.08	1150	1670	2.95	3.2	0 (0: NO)	0 (0: NO)					
c1ccc2sc(Sc3ncnc4sccc34)nc2c1 [TCMDC-125539]	100.00	500	140	>100	>25	1 (1: YES)	1 (1: YES)					
Fc1ccc(OC2CN(c3nccc(NCc4ccccc4Cl)n3)C2)cc1 [TCMDC-135110]	83.45	2510	5220	83.45	>25	1 (1: YES)	1 (1: YES)					
Cc1c(Cl)cccc1N=C(S)NN=Cc1ccccn1 [TCMDC-125487]	100.00	270	28	>100	>25	1 (1: YES)	1 (1: YES)					
COc1ccc2ccccc2c1CNCCCCCCNCc1c(OC)ccc2ccccc12.Cl [TCMDC-137915]						0 (0: NO)	1 (1: YES)	3.90	250	700	3.59	4.22
COc1ccc2ccc(OC)c(CNCCCCCCNCc3c(OC)ccc4ccc(OC)cc34)c2c1.CS(=O)(=O)O [TCMDC-137796]	3.36	290	1210	3.31	3.4	0 (0: NO)	1 (1: YES)					
CCc1c(CCNCCCCCCNC(C)Cc2ccc3c(c2CC)OCO3)ccc(OC)c1OC.Cl (stereo not shown) [TCMDC-132052]	2.78	330	480	2.46	3.1	0 (0: NO)	0 (0: NO)					
CN(C)CCNCc1cccc(-c2ccc3c(Nc4ccc(Oc5ccccn5)cc4)ccnc3c2)c1 [TCMDC-138493]	4.24	220	820	3.98	4.49	0 (0: NO)	1 (1: YES)					
CN1CCN(CCNc2c3ccccc3nc3c2ccc2ccccc23)CC1.Cl [TCMDC-137723]	5.84	390	3490	5.07	6.6	0 (0: NO)	1 (1: YES)					
N=C(NCC1CC1c1ccccc1)c1cccc(C(=N)NCC2CC2c2ccccc2)n1 (stereo not shown) [TCMDC-137456]	6.50	450	1890	6.21	6.8	0 (0: NO)	1 (1: YES)					
CS(=O)(=O)O.FC(F)(F)COc1ccc2ccccc2c1CCNCCCCNCCc1c(OCC(F)(F)F)ccc2ccccc12 [TCMDC-137317]	2.70	1370	1010	2.09	3.3	0 (0: NO)	0 (0: NO)					
FC(F)(F)c1ccc2[nH]c(-c3cccc(-c4ccc(CNCCN5CCNCC5)cc4)c3)nc2c1.O=C(O)C(F)(F)F [TCMDC-132872]	10.72	860	1790	8.81	12.62	0 (0: NO)	1 (1: YES)					
FC(F)(F)c1ccc2[nH]c(-c3ccc(-c4cccc(CNCCN5CCNCC5)c4)cc3)nc2c1.O=C(O)C(F)(F)F [TCMDC-132864]	14.90	1080	1710	12.31	17.5	0 (0: NO)	1 (1: YES)					
COc1cc2nc(NCCCN3CCCCC3)nc(NCc3ccccc3)c2cc1OC [TCMDC-132012]	7.89	300	900	6.84	8.94	0 (0: NO)	1 (1: YES)					
